Measurements reported in US20080249088A1, “Topical Delivery of Antifungal Drugs” (priority 2007, published 2008).

Test: solubility in water
Format: physicochemical
Experimental: In the preferred embodiment, a 100 ml. mixture would be created by mixing 1 gram of butenafine with 5 ml. of benzyl alcohol at room temperature. This would then be dissolved into 85 ml. of ethanol, then 10 ml. of water would be added.

CN(Cc1ccc(C(C)(C)C)cc1)Cc1cccc2ccccc12 [Butenafine, butenafine]
solubility in water: limited solubility
